Reference: paper PMC8329300, “X-ray crystallography reveals molecular recognition mechanism for sugar binding in a melibiose transporter MelB” (Communications Biology, 2021)

Biological target: T1, D59C MelBSt (Salmonella typhimurium, UniProt P30878, D59C)
T1 construct: Cys scanning mutagenesis for the full-length MelBSt; His10 (C); made in house; host or cells: E. coli DW2
Experiment: Trp→dansyl galactoside (D2G) FRET time trace and IC50 of D2G displacement (D59C)
Assay type: binding
Settings: IC50 of galactoside displacement on bound D2G, α-NPG, 10 μM D2G
Protocol: Fig. 1 Functional characterizations. a [^3H] Melibiose transport time course with intact cells. […] Inset, melibiose fermentation assay. Transformants with DW2 strain were plated on MacConkey agar plates containing 30 mM melibiose as the sole carbohydrate source and pH sensor neutral red, and incubated at 37 °C for 16–18 h before imaging. Number of tests = 3, from different batch of cells or duplicate measurements from same batch of sample. b Ligand binding by Trp→dansyl galactoside (D^2G) FRET assay. Purified proteins at 1 μM concentration in 20 mM Tris-HCl, pH 7.5, 100 mM CholCl, 10% glycerol, and 0.03% UDM were subjected to steady-state fluorescence measurements as described in Methods. On the time-trace, 1.8 μL of 1 mM D^2G at 10 μM was added into 180 μL of protein solutions at 1-min point, followed by supplying 10 μL of 5 mM DDMB or 5 mM α-NPG to displace the bound D^2G. For testing Na^+ or Li^+ binding, they are added into the solution before displacement with the second sugar. The structure of DDMB or α-NPG is shown in a chair form, and the carbon positions are labeled. Glycosidic bonds are indicated by arrows. Both are α-galactosides containing a substituent at the anomeric carbon-1. The data were from duplicate measurements.
Steady-state fluorescence measurements were performed with an AMINCO-Bowman series 2 spectrometer with purified MelBSt at 1 μM in 20 mM Tris-HCl, pH 7.5, 100 mM CholCl, 10% glycerol, 0.03% UDM. Using an excitation wavelength at 290 nm, the emission intensity was recorded at 490 nm. On a time-trace, D^2G, NaCl or LiCl, then DDMB or α-NPG, were sequentially added into the protein solutions at a 1 min-interval. […] An identical volume of water was used for the control. The decrease in intensity after each addition of DDMB or α-NPG was corrected by the dilution effect and plotted as a function of the accumulated α-NPG concentrations or estimated DDMB concentrations. The 50% inhibitory concentration (IC50) was determined by fitting a hyperbolic function to the data (OriginPro 2020b). The final concentration of each detergent is estimated to be 234 μM, which is less than their CMC value for (DDMB, 295 μM).
Supplementary Figure 2. Determination of DDMB binding affinity to MelBSt. (a) Titration with DDMB or a-NPG. MelBSt in 20 mM Tris-HCl, pH 7.5, 100 mM CholCl, 10% glycerol, 0.03% UDM without (1) or with 100 mM NaCl (2) were added with D2G at 10 μM at 1-min time point as indicated by triangle symbols on the Trp®dansyl FRET time trace. Starting at the 2-min of time point, DDMB or a-NPG solution was supplemented consecutively at a 1-min interval into MelBSt solution till no change in fluorescence intensity reached as indicated in star symbols. DDM and UDM were used as negative controls. 1% DDM or UDM was titrated into the mixture, The […]
At 2-min time point, additions of galactosides were colored in pink, a-NPG in yellow, UDM in blue, DDM in light blue, water in gray traces, respectively. (b) IC50 determination. The intensity decrease at each titration were corrected by the dilution effect, and plotted as a function of the accumulated DDMB or α-NPG concentration. The 50% inhibitory concentration (IC50) was determined by fitting the data to a hyperbolic function (OriginPro 2020b). Results are presented in […]
(1 picture or pasted object on this page, not shown here)

T1 sequence (P30878 whole entry D59C): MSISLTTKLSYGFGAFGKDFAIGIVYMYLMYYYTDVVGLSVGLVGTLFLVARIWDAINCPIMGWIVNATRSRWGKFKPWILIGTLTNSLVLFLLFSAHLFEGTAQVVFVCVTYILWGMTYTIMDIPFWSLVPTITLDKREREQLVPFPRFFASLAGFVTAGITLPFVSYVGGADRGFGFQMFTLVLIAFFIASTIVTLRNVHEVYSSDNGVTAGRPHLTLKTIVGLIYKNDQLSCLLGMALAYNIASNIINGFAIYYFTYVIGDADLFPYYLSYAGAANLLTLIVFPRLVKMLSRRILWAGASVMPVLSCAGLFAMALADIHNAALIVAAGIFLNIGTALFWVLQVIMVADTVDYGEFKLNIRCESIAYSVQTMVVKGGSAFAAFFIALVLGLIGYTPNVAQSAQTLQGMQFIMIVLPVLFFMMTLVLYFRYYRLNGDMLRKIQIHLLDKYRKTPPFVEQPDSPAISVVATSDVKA

`O=[N+]([O-])c1ccc(OC2OC(CO)C(O)C(O)C2O)cc1` [α-NPG, 4-nitrophenyl-α-D-galactopyranoside] gave an IC50 (Apo) of 22.1 ± 5.75 µM and an IC50 (Na+ (100 mM)) of 21.3 ± 1.67 µM.
